Measurements from publication PMC8273889, “Exploiting Electrode Nanoconfinement to Investigate the Catalytic Properties of Isocitrate Dehydrogenase (IDH1) and a Cancer-Associated Variant” (The Journal of Physical Chemistry Letters, 2021).

Key:
Assay type in all cases: biochemical
[1] = molecular target: T1, IDH1 (isocitrate dehydrogenase 1) (Homo sapiens, UniProt O75874); test: bidirectional cyclic voltammetry of 2OG/isocitrate interconversion with CO2 supplied by carbonic anhydrase
T1 construct: homodimeric (2 × 47 kDa)

[2] = molecular target: T2, IDH1 R132H (isocitrate dehydrogenase 1) (Homo sapiens, UniProt O75874, R132H); test: electrochemical turnover (cyclic voltammetry) with nanoconfined purified enzyme
T2 construct: homodimeric (2 × 47 kDa)

[3] = molecular target: T1, IDH1 (isocitrate dehydrogenase 1); test: as above

T1 sequence (O75874 2-414): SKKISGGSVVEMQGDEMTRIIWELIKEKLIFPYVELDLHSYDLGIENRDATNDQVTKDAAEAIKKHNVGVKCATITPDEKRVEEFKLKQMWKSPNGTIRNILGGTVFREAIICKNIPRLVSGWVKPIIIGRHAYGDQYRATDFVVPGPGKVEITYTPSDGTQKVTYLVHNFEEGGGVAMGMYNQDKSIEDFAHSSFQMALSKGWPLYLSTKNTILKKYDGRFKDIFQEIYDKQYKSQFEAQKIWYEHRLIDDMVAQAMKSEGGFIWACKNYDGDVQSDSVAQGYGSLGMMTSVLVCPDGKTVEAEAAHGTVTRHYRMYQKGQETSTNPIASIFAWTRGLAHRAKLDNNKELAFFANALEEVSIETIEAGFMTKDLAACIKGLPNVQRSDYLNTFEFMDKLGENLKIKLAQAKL
T2 sequence (O75874 2-414 R132H): as the sequence (O75874 2-414) above, with R131H counted along it

SMILES	bidirectional cyclic voltammetry of 2OG/isocitrate interconversion with CO2 supp [1]	electrochemical turnover (cyclic voltammetry) with nanoconfined purified enzyme [2]	electrochemical turnover (cyclic voltammetry) with nanoconfined purified enzyme [3]
O=C(O)CCC(=O)C(=O)O [2OG, 2-oxoglutarate]	Cyclic voltammetry measuring bidirectionality of IDH1-catalyzed 2OG/isocitrate interconversion at different 2OG/isocitrate ratios	R132H-catalyzed 2OG reduction (Figure 1C, D) is much slower, manifesting low currents	
O=C(O)CC(C(=O)O)C(O)C(=O)O (stereo not drawn) [isocitrate]			IDH1 (Figure 1A, B) is an excellent catalyst for isocitrate oxidation
